Reference: PMC11876601 (Molecular Systems Biology, 2025)
Like-named read-outs stand apart in the source and are kept apart here.

Key:
Assay in all cases: cells
Dan-G [1] = tested on: Dan-G; design: ATPlite luminescence viability of PDAC cell lines, 11-dose single-agent curves, 4-parameter fit; conditions: 72 h, read-out: EC50 [nM]
How it was run: (§1)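 Drug-combination screening used cells plated at 1000 to 5000 per well one day before treatment. Final DMSO was 0.2%. Each plate held untreated negative-control wells and 5 µM staurosporine positive-control wells.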

AsPC-1 [2] = tested on: AsPC-1; design: ATPlite luminescence viability of PDAC cell lines, 11-dose single-agent curves, 4-parameter fit; conditions: Homo sapiens, ASPC1, 72 h, read-out: EC50 [nM]
How it was run: as §1

MiaPaCa-2 [3] = tested on: MiaPaCa-2; design: ATPlite luminescence viability of PDAC cell lines, 11-dose single-agent curves, 4-parameter fit; conditions: Homo sapiens, MIA PaCa-2, 72 h, read-out: EC50 [nM]
How it was run: as §1

PSN-1 [4] = tested on: PSN-1; design: ATPlite luminescence viability of PDAC cell lines, 11-dose single-agent curves, 4-parameter fit; conditions: Homo sapiens, PSN1, 72 h, read-out: EC50 [nM]
How it was run: as §1

BxPC-3 [5] = tested on: BxPC-3; design: ATPlite luminescence viability of PDAC cell lines, 11-dose single-agent curves, 4-parameter fit; conditions: Homo sapiens, BXPC-3, 72 h, read-out: EC50 [nM]
How it was run: as §1

Suit2-07 [6] = tested on: Suit2-07; design: ATPlite luminescence viability of PDAC cell lines, 11-dose single-agent curves, 4-parameter fit; conditions: 72 h, read-out: EC50 [nM]
How it was run: as §1

FAMPAC [7] = tested on: FAMPAC; design: ATPlite luminescence viability of PDAC cell lines, 11-dose single-agent curves, 4-parameter fit; conditions: 72 h, read-out: EC50 [nM]
How it was run: as §1

PaTu-8988-T [8] = tested on: PaTu-8988-T; design: ATPlite luminescence viability of PDAC cell lines, 11-dose single-agent curves, 4-parameter fit; conditions: Homo sapiens, PaTu 8988t, 72 h, read-out: EC50 [nM]
How it was run: as §1

HuP-T4 = tested on: HuP-T4; design: Viability of PDAC cell lines, ATPlite luminescence, 11-dose single-agent curve fit; conditions: Homo sapiens, HuP-T4, 72 h, read-out: EC50 [nM]
How it was run: (§2)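 screening used cells plated at 1000 to 5000 per well one day before treatment. Final DMSO was 0.2%. Each plate held untreated negative-control wells and 5 µM staurosporine positive-control wells.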

HPDE = tested on: HPDE; design: Viability of PDAC cell lines, ATPlite luminescence, 11-dose single-agent curve fit; conditions: HPDE, 72 h, read-out: EC50 [nM]
How it was run: as §2

PANC-1 = tested on: PANC-1; design: Viability of PDAC cell lines, ATPlite luminescence, 11-dose single-agent curve fit; conditions: Homo sapiens, PANC-1, 72 h, read-out: EC50 [nM]
How it was run: as §2

Colo-357 [9] = tested on: Colo-357; design: Viability of PDAC cell lines, ATPlite luminescence, 11-dose single-agent curve fit; conditions: Homo sapiens, COLO357, 72 h, read-out: EC50 [nM]
How it was run: as §2

Capan-1 = tested on: Capan-1; design: Viability of PDAC cell lines, ATPlite luminescence, 11-dose single-agent curve fit; conditions: Homo sapiens, CAPAN-1, 72 h, read-out: EC50 [nM]
How it was run: as §2

Colo-357 [10] = tested on: Colo-357; design: ATPlite luminescence viability of PDAC cell lines, 11-dose single-agent curves, 4-parameter fit; conditions: Homo sapiens, COLO357, 72 h, read-out: EC50 [nM]
How it was run: as §1

AsPC-1 [11] = tested on: AsPC-1; design: Viability of PDAC cell lines, ATPlite luminescence, 11-dose single-agent curve fit; conditions: Homo sapiens, ASPC1, 72 h, read-out: EC50 [nM]
How it was run: as §2

MiaPaCa-2 [12] = tested on: MiaPaCa-2; design: Viability of PDAC cell lines, ATPlite luminescence, 11-dose single-agent curve fit; conditions: Homo sapiens, MIA PaCa-2, 72 h, read-out: EC50 [nM]
How it was run: as §2

PSN-1 [13] = tested on: PSN-1; design: Viability of PDAC cell lines, ATPlite luminescence, 11-dose single-agent curve fit; conditions: Homo sapiens, PSN1, 72 h, read-out: EC50 [nM]
How it was run: as §2

BxPC-3 [14] = tested on: BxPC-3; design: Viability of PDAC cell lines, ATPlite luminescence, 11-dose single-agent curve fit; conditions: Homo sapiens, BXPC-3, 72 h, read-out: EC50 [nM]
How it was run: as §2

FAMPAC [15] = tested on: FAMPAC; design: Viability of PDAC cell lines, ATPlite luminescence, 11-dose single-agent curve fit; conditions: 72 h, read-out: EC50 [nM]
How it was run: as §2

PaTu-8988-T [16] = tested on: PaTu-8988-T; design: Viability of PDAC cell lines, ATPlite luminescence, 11-dose single-agent curve fit; conditions: Homo sapiens, PaTu 8988t, 72 h, read-out: EC50 [nM]
How it was run: as §2

Dan-G [17] = tested on: Dan-G; design: Viability of PDAC cell lines, ATPlite luminescence, 11-dose single-agent curve fit; conditions: 72 h, read-out: EC50 [nM]
How it was run: as §2

Suit2-07 [18] = tested on: Suit2-07; design: Viability of PDAC cell lines, ATPlite luminescence, 11-dose single-agent curve fit; conditions: 72 h, read-out: EC50 [nM]
How it was run: as §2

| EC50 (AsPC-1 [2]) [nM] | EC50 (MiaPaCa-2 [3]) [nM] | EC50 (BxPC-3 [5]) [nM] | EC50 (PANC-1) [nM] | EC50 (Colo-357 [9]) [nM] | EC50 (Colo-357 [10]) [nM] | Structure (SMILES) | EC50 (Dan-G [1]) [nM] | EC50 (PSN-1 [4]) [nM] | EC50 (Suit2-07 [6]) [nM] | EC50 (FAMPAC [7]) [nM] | EC50 (PaTu-8988-T [8]) [nM] | EC50 (HuP-T4) [nM] | EC50 (HPDE) [nM] | EC50 (Capan-1) [nM] | EC50 (FAMPAC [15]) [nM] | EC50 (PaTu-8988-T [16]) [nM] | EC50 (Dan-G [17]) [nM] | also measured |
| --- | --- | --- | --- | --- | --- | --- | --- | --- | --- | --- | --- | --- | --- | --- | --- | --- | --- | --- |
| – | – | – | > 10000 | – | 151 | CC(C)NC[C@@H](C(=O)N1CCN(c2ncnc3c2[C@H](C)C[C@H]3O)CC1)c1ccc(Cl)cc1 [Ipatasertib] | 1150 | – | 3240 | – | – | 310 | 5290 | 4690 | 642 | 543 | – | EC50 (AsPC-1 [11]): 154 nM; EC50 (MiaPaCa-2 [12]): 3940 nM; EC50 (PSN-1 [13]): 7080 nM; EC50 (BxPC-3 [14]): 246 nM |
| 3210 | 1290 | 296 | 6620 | – | 1020 | COC(=O)N[C@@H](C)CNc1nccc(-c2cn(C(C)C)nc2-c2cc(Cl)cc(NS(C)(=O)=O)c2F)n1 [Encorafenib] | 620 | 800 | 1790 | 943 | – | – | 1140 | 453 | – | 1220 | – | – |
| 83.9 | 10.7 | 381 | 350 | 58.4 | – | Cn1cnc2c(F)c(Nc3ccc(Br)cc3F)c(C(=O)NOCCO)cc21 [Binimetinib] | – | 71.8 | – | 2430 | – | 176 | 222 | 401 | – | 155 | 504 | EC50 (Suit2-07 [18]): 112 nM |
| > 10000 | > 10000 | 4420 | > 10000 | 3010 | – | CC(C)N1CCN(Cc2cnc(-c3cc(-c4cccc5[nH]ccc45)cc4[nH]ncc34)o2)CC1 [Nemiralisib] | – | – | > 10000 | – | – | 3260 | 7360 | 10.5 | > 10000 | 811 | 5040 | EC50 (PSN-1 [13]): 5830 nM |
| – | 773 | 2910 | 1860 | – | 6960 | CO[C@]1(C(=O)N[C@@H](C)c2ccc(-n3cc(F)cn3)nc2)CC[C@H](c2nc(C)cc(Nc3cc(C)[nH]n3)n2)CC1 [Pralsetinib] | 6680 | 5870 | > 10000 | 5210 | 6490 | 4550 | 4600 | > 10000 | – | – | – | EC50 (AsPC-1 [11]): 1820 nM |
| 3450 | 2050 | 4270 | 3980 | 3150 | – | COCc1c(-c2cc3cc(C)cc(OC)c3s2)c2c(N)ncnn2c1CN1CCNC(=O)C1 [Rogaratinib] | 3460 | 3270 | > 10000 | 3300 | 3870 | 24.2 | 7330 | 5610 | – | – | – | – |

Second part, the molecule before the results:

| Structure (SMILES) | EC50 (AsPC-1 [2]) [nM] | EC50 (MiaPaCa-2 [3]) [nM] | EC50 (BxPC-3 [5]) [nM] | EC50 (PANC-1) [nM] | EC50 (Colo-357 [9]) [nM] | EC50 (Colo-357 [10]) [nM] | EC50 (Dan-G [1]) [nM] | EC50 (PSN-1 [4]) [nM] | EC50 (Suit2-07 [6]) [nM] | EC50 (FAMPAC [7]) [nM] | EC50 (PaTu-8988-T [8]) [nM] | EC50 (HuP-T4) [nM] | EC50 (HPDE) [nM] | EC50 (Capan-1) [nM] | EC50 (FAMPAC [15]) [nM] | EC50 (PaTu-8988-T [16]) [nM] | EC50 (Dan-G [17]) [nM] | also measured |
| --- | --- | --- | --- | --- | --- | --- | --- | --- | --- | --- | --- | --- | --- | --- | --- | --- | --- | --- |
| COC(=O)c1ccc2c(c1)NC(=O)/C2=C(\Nc1ccc(N(C)C(=O)CN2CCN(C)CC2)cc1)c1ccccc1 [Nintedanib] | > 10000 | 1030 | 4940 | 77.7 | 9780 | – | 6960 | 8030 | > 10000 | > 10000 | 6690 | 146 | 1550 | 10200 | – | – | – | – |
| CC(=O)c1c(C)c2cnc(Nc3ccc(N4CCNCC4)cn3)nc2n(C2CCCC2)c1=O [Palbociclib] | – | > 10000 | – | > 10000 | – | 5610 | 8540 | > 10000 | > 10000 | – | > 10000 | 0.1 | > 10000 | 5070 | 1390 | – | – | EC50 (AsPC-1 [11]): 4830 nM; EC50 (BxPC-3 [14]): 2930 nM |
| Cc1nc(NC(=O)N2CCC[C@H]2C(N)=O)sc1-c1ccnc(C(C)(C)C(F)(F)F)c1 [Alpelisib] | 3740 | 1400 | 1640 | > 10000 | – | 355 | 661 | – | – | – | 3930 | 21.8 | 7680 | 5110 | 3750 | – | – | EC50 (PSN-1 [13]): 269 nM; EC50 (Suit2-07 [18]): 2060 nM |
| COc1cc(CCc2cc(NC(=O)c3ccc(N4C[C@@H](C)N[C@@H](C)C4)cc3)n[nH]2)cc(OC)c1 [AZD4547] | > 10000 | > 10000 | 6320 | 5350 | 1080 | – | – | 8650 | 9040 | – | – | 9460 | 5300 | 0.79 | > 10000 | 7380 | 0.1 | – |
| Cn1cnc2c(F)c(Nc3ccc(Br)cc3Cl)c(C(=O)NOCCO)cc21 [Selumetinib] | 59.5 | 24.1 | 1360 | 87.4 | 22.3 | – | – | 229 | – | 8370 | – | 276 | 268 | 4670 | – | 94.7 | 1490 | EC50 (Suit2-07 [18]): 451 nM |
